In ChEMBL document CHEMBL4177675, “The synthesis of 2,3,6-trisubstituted 1-oxo-1,2-dihydroisoquinolines as potent CRTh2 antagonists” (Bioorg Med Chem Lett, 2017) one finds Ki data, which are given here for twelve compounds.

As usually defined, the pKi is the negative decadic logarithm of the Ki, by convention in mol/L.

pKi: −log10 of the molar value.

The first test has as its target T1, Prostaglandin D2 receptor 2 (Homo sapiens, UniProt Q9Y5Y4).
T1 sequence (Q9Y5Y4 whole entry): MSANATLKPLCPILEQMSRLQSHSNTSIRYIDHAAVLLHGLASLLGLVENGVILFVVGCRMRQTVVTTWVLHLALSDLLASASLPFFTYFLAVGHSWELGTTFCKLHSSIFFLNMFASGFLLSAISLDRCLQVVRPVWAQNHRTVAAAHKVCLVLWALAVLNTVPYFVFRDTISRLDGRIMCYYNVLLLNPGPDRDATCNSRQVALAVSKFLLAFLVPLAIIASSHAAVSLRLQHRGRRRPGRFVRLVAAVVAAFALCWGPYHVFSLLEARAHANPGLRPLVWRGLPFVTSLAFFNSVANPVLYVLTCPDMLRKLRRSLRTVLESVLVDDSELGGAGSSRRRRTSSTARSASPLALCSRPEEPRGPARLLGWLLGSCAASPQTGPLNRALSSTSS
The test can be described thus: Antagonist activity at CRTh2 (unknown origin) assessed as inhibition of CD11b activation. Type of test: functional.
As for `O=C(O)CCCCc1cc2cc(C(=O)N[C@@H]3CCCc4cc(F)ccc43)ccc2c(=O)n1-c1ccc(F)cc1`, the pKi is 8.88.
Same read-out and setting: the same measure for `O=C(O)CCCCc1cc2cc(C(=O)N[C@@H]3CCCc4ccccc43)ccc2c(=O)n1-c1ccc(F)cc1`: 9.40; for `C[C@@H](NC(=O)c1ccc2c(=O)n(-c3ccc(F)cc3)c(CCCCC(=O)O)cc2c1)c1ccc(F)cc1`: 9.64.

The next test concerns the target T1, Prostaglandin D2 receptor 2. The test can be described thus: Binding affinity to human CRTh2 assessed by competitive binding assay.
`C[C@@H]1CN(c2ccc(F)cc2)CCN1C(=O)c1ccc2c(=O)n(-c3ccc(F)cc3)c(CCCCC(=O)O)cc2c1`: the pKi was 7.62.
As to `C[C@@H](NC(=O)c1ccc2c(=O)n(-c3ccc(C#N)cc3)c(CCCCC(=O)O)cc2c1)c1ccc(F)cc1`, the pKi was 8.04.
The same measure, in the same setting: for `C[C@@H](NC(=O)c1ccc2c(=O)n(-c3ccc(F)cc3)c(CCCCC(=O)O)cc2c1)c1ccc(F)cc1` the value was 8.23; for `COc1ccc(-n2c(CCCCC(=O)O)cc3cc(C(=O)N[C@H](C)c4ccc(F)cc4)ccc3c2=O)cc1`, 8.07; for `O=C(O)CCCCc1cc2cc(C(=O)Nc3noc(Cc4ccc(F)cc4)n3)ccc2c(=O)n1-c1ccc(F)cc1`, 8.11.
The same measure, in the same setting: for `CC1(c2nc3ccc(F)cc3o2)CC(NC(=O)c2ccc3c(=O)n(-c4ccc(F)cc4)c(CCCCC(=O)O)cc3c2)=NO1` (stereo not drawn) the value was 7.59; for `CC(c1ccc(F)cc1)c1nc(NC(=O)c2ccc3c(=O)n(-c4ccc(F)cc4)c(CCCCC(=O)O)cc3c2)no1` (stereo not drawn), 7.89.
On the same count and under the same terms, for `C[C@@H](NC(=O)c1ccc2c(=O)[nH]c(CCCCC(=O)O)cc2c1)c1ccc(F)cc1` the value was 6.15; for `O=C(O)CCCCc1cc2cc(C(=O)Nc3cc(Cc4ccc(F)cc4)on3)ccc2c(=O)n1-c1ccc(F)cc1`, 7.96.
`O=C(O)CCCCc1cc2cc(C(=O)Nc3noc(C4Cc5ccccc5C4)n3)ccc2c(=O)n1-c1ccc(F)cc1` had a pKi of 7.66.
